Read-outs that look alike come from different tables or passages of the source.
Key:
in vitro [1] = format: cell-based; settings: human; 72 h, resazurin; read-out: THP-1 CC50 (μM ± SD)
Procedure: (§1) THP-1 (human monocyte cell line) cells were cultivated in RPMI medium supplemented with 10% foetal calf serum (FCS) (Cultilab, Campinas, SP, BR) and 1% penicillin and streptomycin (pen/strep—Sigma-Aldrich) at 37°C under 5% CO2, and HFF-1 (human fibroblast) and HepG2 (hepatocytes) cells were cultivated in DMEM without phenol red (Cultilab) supplemented with 10% FBS (Sigma-Aldrich) and 1% pen/strep at 37°C under 5% CO2.
THP-1 cells were seeded at 2x10^4/well in 96-well culture plates in RPMI 1640 supplemented (10% FCS, 1% pen/strep) and incubated overnight (37°C, 5% CO2). The compounds were added in 2-fold serial dilutions (64–0.12 μM), and the plates were incubated as described before. Each compound concentration was evaluated in duplicate. All the plates included DOX (Sigma-Aldrich) as a positive control (10–0.01 μM) and untreated wells as a negative control (100% growth). After 72 h, 20 μL of resazurin (Sigma-Aldrich) was added, and the plates were incubated for 4 h. The absorbance was measured at 536 and 588 nm in an automated microplate reader SpectraMax Gemini, and the data were analysed using GraphPad Prism version 8.0 for CC50 value calculation. The percentage of nonviable cells was determined and compared to the negative control wells (100% growth).

in vitro [2] = format: cell-based; settings: human, 72 h, MTS
Procedure: as §1
The cytotoxicity of the compounds against HFF-1 fibroblasts and HepG2 hepatocytes was evaluated using the MTS tetrazolium assay (Promega, Madison, WI, USA). HFF-1 fibroblasts were seeded at 4x10^3/well in 96-well culture plates in DMEM without phenol red and incubated overnight (37°C, 5% CO2). HepG2 hepatocytes were seeded at 7x10^3/well in 96-well culture plates in DMEM (Cultilab) with supplements (10% FCS, 1% pen/strep) and incubated overnight (37°C, 5% CO2). The compounds were added in 2-fold serial dilutions at the same concentrations described before, and the plates were incubated as described before. Each compound concentration was evaluated in duplicate. All the plates included doxorubicin (DOX) (Sigma-Aldrich) as a positive control (10–0.01 μM) and untreated wells as a negative control (100% growth). After 72 h, 15 μL of MTS (Promega) was added, and the plates were incubated for 4 h. The absorbance was measured at 490 nm in an automated SpectraMax 384 microplate reader (Sunnyvale, CA, USA), and the data were analysed using GraphPad Prism version 8.0 for CC50 value calculation. The percentage of nonviable cells was determined and compared to the negative control wells (100% growth).

[3] = system: intracellular T. cruzi Tulahuen LacZ amastigotes; experiment: microbe, parasite or virus in culture; format: cell-based, Trypanosoma cruzi
Procedure: (§2) The epimastigote forms of the T. cruzi Tulahuen strain, which expresses the E. coli β-galactosidase gene lacZ [11], were grown in liver infusion tryptone (LIT) supplemented with 10% FCS (Cultilab) and 1% pen/strep (Sigma–Aldrich) at 28°C. Metacyclogenesis from epimastigotes to trypomastigotes was induced by the incubation of the epimastigotes in Grace’s insect medium (Sigma-Aldrich, 28°C) every 5 days. After 5 days, the trypomastigote forms were used to infect the HFF-1 cells. The promastigote forms of L. infantum were maintained in Schneider’s insect medium (Sigma-Aldrich) supplemented with 10% FCS (Cultilab) and 1% pen/strep (Sigma-Aldrich) at 28°C and subcultured every 6 or 7 days.
In vitro assays against T. cruzi were performed as described previously. HFF-1 human fibroblasts were seeded at 4x10^3/well in 96-well tissue culture plates in DMEM (Cultilab) without phenol red and then incubated overnight (37°C, 5% CO2). Next, trypomastigotes were added at 4x10^4/well, and the plates were incubated (37°C, 5% CO2). After 24 h, 2-fold serial dilutions of the test compounds were added at concentrations ranging from 64 to 0.12 μM, and the plates were then incubated (37°C, 5% CO2). Each compound concentration was evaluated in duplicate. All the plates included BZ (64–0.12 μM) (Sigma-Aldrich) as a positive control and untreated wells (100% growth) as a negative control. After 120 h, chlorophenol red β-D-galactopyranoside (CPRG, Sigma-Aldrich) was added to each well. The absorbance was measured at 570 nm in an automated SpectraMax 384 microplate reader (Sunnyvale, CA, USA), and the data were analysed using GraphPad Prism version 8.0 (San Diego, CA, USA) for IC50 value calculation.
(§3) The analyses were performed using GraphPad Prism version 8.0 (GraphPad Software, San Diego, CA, USA). Both the IC50 and CC50 values were calculated by adjusting the sigmoid dose-response curves, and the selectivity index (SI) values were determined by CC50/IC50 [16]. Statistical analyses were performed using one-way ANOVA followed by Dunnett’s multiple comparison test.

[4] = system: intracellular L. infantum amastigotes; experiment: microbe, parasite or virus in culture; format: cell-based, Leishmania infantum
Procedure: as §2
In the intracellular amastigote assay, THP-1 cells were seeded at 2x10^4/well (RPMI-1640, 100 μL) with phorbol 12-myristate 13-acetate (PMA) at 20 ng/mL for differentiation into macrophages. After incubation for 72 h (5% CO2, 37°C), the medium was aspirated, and late-stage L. infantum promastigotes were added (2x10^5/well, 100 μL). Following 24 h of incubation, the medium was aspirated to clear extracellular parasites, and the compounds were added in serial dilutions (2-fold) to final concentrations of 64–0.12 μM. The plates included negative controls (100% growth) and MIL (64–0.12 μM) as a positive control. After 120 h of incubation, the medium was removed, and the cells were fixed in methanol and stained with Giemsa. The average number of intracellular amastigotes per THP-1-cell was determined using an inverted microscope and a cell counter. Growth inhibition is expressed as a percentage of the average number of amastigotes per macrophage in the negative control wells. The IC50 values were obtained using GraphPad Prism version 8.0.
as §3

COc1cccc2c1C(=O)c1c(O)c3c(c(O)c1C2=O)C[C@@](O)(C(=O)CO)C[C@@H]3O[C@H]1C[C@H](N)[C@H](O)[C@H](C)O1 [DOX, doxorubicin, reference compound]
CC50 (in vitro [1]): 0.97 ± 0.31 µM
CC50 (in vitro [2]; read-out: HFF-1 CC50 (μM ± SD)): 0.69 ± 0.08 µM
CC50 (in vitro [2]; read-out: HepG2 CC50 (μM ± SD)): 0.24 ± 0.06 µM

O=C(Cn1ccnc1[N+](=O)[O-])NCc1ccccc1 [BZ, benznidazole, reference compound]
IC50 ([3]; Trypanosoma cruzi, intracellular amastigotes, Tulahuen LacZ, HFF-1 host cells, 120 h, read-out: T. cruzi IC50 (μM ± SD)): 5.2 ± 1.87 µM
SI^1 (CC50 HFF-1/IC50 T. cruzi) ([3]; selectivity index): >12.3
CC50 (in vitro [2]; read-out: HFF-1 CC50 (μM ± SD)): > 64 µM

CCCCCCCCCCCCCCCCOP(=O)([O-])OCC[N+](C)(C)C [MIL, miltefosine, reference compound]
CC50 (in vitro [1]): 58.5 ± 5.37 µM
IC50 ([4]; Leishmania infantum, THP-1, 120 h, intracellular amastigotes in THP-1 macrophages, 120 h, read-out: L. infantum IC50 (μM ± SD)): 1.1 ± 0.16 µM
SI^2 (CC50 THP-1/IC50 L. infantum) ([4]; selectivity index): 53.14
